Usually Kd stands for the concentration at which binding is half-saturated. As a reminder, the inhibition is the relative decrease from the control value, in per cent. As usually defined, the IC50 is the midpoint of a concentration-inhibition curve.

Results on three molecules are retold here after ChEMBL document CHEMBL4622935, “Novel anticancer drug curaxin CBL0137 impairs DNA methylation by eukaryotic DNA methyltransferase Dnmt3a” (Bioorg Med Chem Lett, 2020).

Experiment [1] addresses DNA. As to the kind of experiment: Binding affinity to 5'-6FAM-tagged 30-mer duplex DNA (17 AT bp) (unknown origin) assessed as dissociation constant for complound-DNA complex by fluorescence polarization assay. It is filed as nucleic-acid assay. In general terms: In fluorescence polarisation assays a small probe gives low polarisation when free and higher when bound to something large.

For experiment [2], the target named is DNA (cytosine-5)-methyltransferase 3A (Mus musculus) (UniProt O88508). As to the kind of experiment: Inhibition of murine DNMT3A catalytic domain-mediated DNA methylation using 5'-6FAM-tagged 30-mer duplex DNA (17 AT bp) as substrate at 60 uM preincubated for 30 mins followed by enzyme addition relative to control.
For experiment [3], the target named is T1, DNA (cytosine-5)-methyltransferase 3A (Mus musculus, UniProt O88508). Nature of the experiment: Inhibition of murine DNMT3A catalytic domain-mediated DNA methylation using 5'-6FAM-tagged 30-mer duplex DNA (22 AT bp) as substrate preincubated for 30 mins followed by enzyme addition.
Experiment [4] deals with DNA (cytosine-5)-methyltransferase 3A (Mus musculus) (UniProt O88508). As to the kind of experiment: Binding affinity to murine DNMT3A catalytic domain assessed as fold reduction in compound fluorescence at 5 uM by dialysis method relative to control.
Experiment [5] deals with T1, DNA (cytosine-5)-methyltransferase 3A. Nature of the experiment: Inhibition of murine DNMT3A catalytic domain-mediated DNA methylation using 5'-6FAM-tagged 30-mer duplex DNA (17 AT bp) as substrate preincubated for 30 mins followed by enzyme addition.
Experiment [6] has as its target DNA (cytosine-5)-methyltransferase 3A (Mus musculus) (UniProt O88508). As to the kind of experiment: Inhibition of murine DNMT3A catalytic domain-mediated DNA methylation using 5'-6FAM-tagged 30-mer duplex DNA (22 AT bp) as substrate at 60 uM preincubated for 30 mins followed by enzyme addition relative to control.
The target of experiment [7] is DNA. As to the kind of experiment: Binding affinity to 5'-6FAM-tagged 30-mer duplex DNA (22 AT bp) (unknown origin) assessed as dissociation constant for complound-DNA complex by fluorescence polarization assay. Type of experiment: nucleic-acid assay.
The target in experiment [8] is DNA (cytosine-5)-methyltransferase 3A (Homo sapiens, UniProt Q9Y6K1). Nature of the experiment: Binding affinity to DNMT3A catalytic domain (unknown origin) assessed as inhibition of enzyme-mediated DNA methylation preincubated for 1 hr followed by enzyme addition measured after 1 hr in presence of AdoMet by PAGE analysis.
Chain of DNA (cytosine-5)-methyltransferase 3A (Homo sapiens, UniProt Q9Y6K1) (Q9Y6K1 whole entry, looked up, the tested form may be a part): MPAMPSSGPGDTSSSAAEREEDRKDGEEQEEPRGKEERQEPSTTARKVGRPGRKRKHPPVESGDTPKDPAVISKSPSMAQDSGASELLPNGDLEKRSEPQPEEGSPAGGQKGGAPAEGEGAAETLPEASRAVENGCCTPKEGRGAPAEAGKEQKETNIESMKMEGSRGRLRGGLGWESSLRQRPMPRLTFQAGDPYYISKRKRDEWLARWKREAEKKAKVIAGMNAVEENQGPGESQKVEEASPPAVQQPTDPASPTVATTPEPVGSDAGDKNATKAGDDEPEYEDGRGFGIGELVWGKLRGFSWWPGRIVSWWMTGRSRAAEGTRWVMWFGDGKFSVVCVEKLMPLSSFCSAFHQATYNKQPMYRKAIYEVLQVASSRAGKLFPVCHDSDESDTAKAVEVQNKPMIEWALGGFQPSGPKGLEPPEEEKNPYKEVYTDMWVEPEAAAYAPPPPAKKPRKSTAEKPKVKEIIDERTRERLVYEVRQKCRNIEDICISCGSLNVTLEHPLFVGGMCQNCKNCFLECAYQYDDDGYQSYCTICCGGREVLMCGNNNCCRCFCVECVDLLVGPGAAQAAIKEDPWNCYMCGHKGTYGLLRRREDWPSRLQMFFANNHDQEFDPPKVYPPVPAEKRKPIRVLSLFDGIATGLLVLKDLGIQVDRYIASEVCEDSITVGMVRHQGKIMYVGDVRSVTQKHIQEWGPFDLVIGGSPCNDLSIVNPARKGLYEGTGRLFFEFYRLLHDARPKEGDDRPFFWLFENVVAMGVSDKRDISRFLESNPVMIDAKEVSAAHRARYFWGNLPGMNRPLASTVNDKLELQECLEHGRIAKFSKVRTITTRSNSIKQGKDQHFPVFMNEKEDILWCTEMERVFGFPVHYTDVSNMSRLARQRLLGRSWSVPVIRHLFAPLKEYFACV

`CC(=O)c1ccc2c(c1)c1cc(C(C)=O)ccc1n2CCNC(C)C`: the values for the Kd on DNA [1] and at DNA [7] were 20 µM and 34 µM, respectively. The inhibition in experiment [2] worked out at 80%; in experiment [6] it was 51%. The IC50 in experiment [3] was 5 µM; in experiment [5], 9 µM. Further, the fold change (FC) in experiment [4] was found to be 20.
Regarding `CCC1/C=C/C=C/C[C@H](C)[C@@H](O)[C@](C)(O)C(=O)[C@@H](C)[C@H](O)[C@@H](C)C(=O)[C@H](C)[C@@H](O)[C@H](C)/C=C/C(=O)OC2[C@@H](C)C(CC1)OC1(CC[C@@H](C)C(C[C@H](C)O)O1)[C@@H]2C` (stereo not given in full), in experiment [8], the IC50 worked out at 6 µM.
Molecule `COc1cccc2c1C(=O)c1c(O)c3c(c(O)c1C2=O)C[C@@](O)(C(=O)CO)C[C@@H]3O[C@H]1C[C@H](N)[C@H](O)[C@H](C)O1` [DOXORUBICIN] returned an inhibition in experiment [2] of 70%. Besides, the IC50 in experiment [5] was 3 µM.
